In patent US11046672B2, “Indolinones compounds and their use in the treatment of fibrotic diseases” (RESPIVERT LIMITED, priority 2015, dated 2021):
Where two headings read alike, the source gives them in different places.

Experiments:
PDGFRβ [1] = target: T1, PDGFRβ (Homo sapiens (Human), UniProt P09619); test: PDGF-BB induced phosphorylation of PDGFRβ in fibroblasts (MRC5 cells, HTRF); type: cell-based
PAMPA permeability assay = type: in vitro ADME; details: PAMPA; for recovery at 5 hr, 10 μM: pH 7, PAMPA, donor and acceptor compartments; for Papp at 5 h, 10 μM: pH 7, pH 7, 10 μM
PDGFRβ [2] = target: T1, PDGFRβ; details: read-out: Ki PDGFRβ
MRC5 cells = test: Cell viability assay in MRC5 cells (MTT)
[3] = MRC5 cells, n = 1 unless otherwise indicated, read-out: PDGFBB-induced PDGFRβ phosphorylation in MRC5 cells (IC50)
[4] = mean, n = 2 unless otherwise indicated

T1 sequence (P09619 33-1106): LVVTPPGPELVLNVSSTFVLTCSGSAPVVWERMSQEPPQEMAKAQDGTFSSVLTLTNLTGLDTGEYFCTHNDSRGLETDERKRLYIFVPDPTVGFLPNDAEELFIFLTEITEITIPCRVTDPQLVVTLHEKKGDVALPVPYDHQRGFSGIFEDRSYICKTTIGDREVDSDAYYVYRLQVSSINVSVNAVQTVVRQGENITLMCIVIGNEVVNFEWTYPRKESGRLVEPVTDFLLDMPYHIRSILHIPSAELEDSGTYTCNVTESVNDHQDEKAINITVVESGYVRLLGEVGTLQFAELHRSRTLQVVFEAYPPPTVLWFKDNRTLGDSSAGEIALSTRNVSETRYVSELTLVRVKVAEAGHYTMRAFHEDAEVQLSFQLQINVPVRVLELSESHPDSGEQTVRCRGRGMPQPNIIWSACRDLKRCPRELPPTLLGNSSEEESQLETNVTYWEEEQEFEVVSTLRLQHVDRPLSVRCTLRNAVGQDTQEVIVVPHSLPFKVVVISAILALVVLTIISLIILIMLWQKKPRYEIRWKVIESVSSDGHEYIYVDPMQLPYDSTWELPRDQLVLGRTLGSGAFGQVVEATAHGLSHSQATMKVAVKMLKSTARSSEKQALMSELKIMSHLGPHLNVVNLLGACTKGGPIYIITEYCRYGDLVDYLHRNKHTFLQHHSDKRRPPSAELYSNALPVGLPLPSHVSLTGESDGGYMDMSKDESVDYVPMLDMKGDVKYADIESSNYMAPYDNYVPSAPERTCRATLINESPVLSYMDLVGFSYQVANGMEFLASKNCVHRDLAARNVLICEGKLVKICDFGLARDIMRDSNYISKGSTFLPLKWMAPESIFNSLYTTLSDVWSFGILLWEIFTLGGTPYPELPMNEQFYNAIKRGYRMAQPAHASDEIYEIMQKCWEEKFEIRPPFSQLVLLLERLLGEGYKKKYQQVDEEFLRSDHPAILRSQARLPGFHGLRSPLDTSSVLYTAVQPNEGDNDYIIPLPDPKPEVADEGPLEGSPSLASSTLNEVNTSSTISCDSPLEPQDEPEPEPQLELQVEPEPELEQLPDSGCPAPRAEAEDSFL

Structure (SMILES)	IC50 (PDGFRβ [1]; [3])	recovery at 5 hr, 10 μM (PAMPA permeability assay)	Papp at 5 h, 10 μM (PAMPA permeability assay)	Ki (PDGFRβ [2]; [4])	Cell viability at 100 nM (%) (MRC5 cells)	Cell viability at 300 nM (%) (MRC5 cells)	Cell viability at 1000 nM (%) (MRC5 cells)	IC50 (PDGFRβ [1])	Ki (PDGFRβ [2])
COC(=O)c1cc2c(cc1C)/C(=C(/Nc1ccc(S(=O)(=O)NOCCN3CCN(C)CC3)cc1)c1ccccc1)C(=O)N2 [Example 2, (Z)-Methyl 5-methyl-3-(((4-(N-(2-(4-methylpiperazin-1-yl)ethoxy)sulfamoyl)phenyl)amino)(phenyl)methylene)-2-oxoindoline-6-carboxylate]	39.6 nM	54.1%	0.0261 ×10⁻⁶ cm/s	19.2 nM	124.5%	104.4%	101.2%	–	–
COC(=O)c1ccc2c(c1)NC(=O)/C2=C(\Nc1ccc(C(=O)NOCCN2CCCCC2)cc1)c1ccccc1 [Example 8, (Z)-Methyl 2-oxo-3-(phenyl((4-((2-(piperidin-1-yl)ethoxy)carbamoyl)phenyl)amino)methylene)indoline-6-carboxylate]	21.5 nM	–	–	27.8 nM	93.4%	95.7%	91%	–	–
CNC(=O)CN1CCN(CCON(C)C(=O)c2ccc(N/C(=C3\C(=O)Nc4cc(C(=O)OC)c(C)cc43)c3ccccc3)cc2)CC1 [Example 9, (Z)-Methyl 5-methyl-3-(((4-(methyl(2-(4-(2-(methylamino)-2-oxoethyl)piperazin-1-yl)ethoxy)carbamoyl)phenyl)amino)(phenyl)methylene)-2-oxoindoline-6-carboxylate]	8.45 nM	82.9%	0.0761 ×10⁻⁶ cm/s	–	129.9%	96.3%	88.6%	–	–
COC(=O)c1cc2c(cc1C)/C(=C(/Nc1ccc(S(=O)(=O)N(C)OCCN(C)CCO)cc1)c1ccccc1)C(=O)N2 [Example 10, (Z)-Methyl 3-(((4-(N-(2-((2-hydroxyethyl)(methyl)amino)ethoxy)-N-methylsulfamoyl)phenyl)amino)(phenyl)methylene)-5-methyl-2-oxoindoline-6-carboxylate]	–	92.6%	24.8 ×10⁻⁶ cm/s	–	105.9%	100.9%	42%	13.6 nM	17.4 nM
COC(=O)c1ccc2c(c1)NC(=O)/C2=C(\Nc1ccc(C(=O)N(C)OCCN2CCN(C)CC2)c(C)c1)c1ccccc1 [Example 18]	3.68 nM	51.5%	0.424 ×10⁻⁶ cm/s	11 nM	104.5%	90.3%	68.7%	–	–
COC(=O)c1ccc2c(c1)NC(=O)/C2=C(\Nc1ccc(C(=O)NOCCCN(C)C)cc1)c1ccccc1 [Example 19]	5.95 nM	54.6%	0.00329 ×10⁻⁶ cm/s	9.62 nM	108.3%	92.7%	76.9%	–	–
COC(=O)c1ccc2c(c1)NC(=O)/C2=C(\Nc1ccc(C(=O)N(OC)C2CCN(C)CC2)cc1)c1ccccc1 [Example 21]	6.79 nM	–	–	10.2 nM	95.5%	86.6%	53%	–	–
COC(=O)c1ccc2c(c1)NC(=O)/C2=C(\Nc1ccc(C(=O)N(C)OCCN(C)C)c(C)c1)c1ccccc1 [Example 22]	6.68 nM	–	–	10 nM	102%	74.1%	39.2%	–	–
COC(=O)c1ccc2c(c1)NC(=O)/C2=C(\Nc1ccc(S(=O)(=O)N(C)OCCN2CCN(C)CC2)cc1)c1ccccc1 [Example 25]	19.4 nM	41.5%	30 ×10⁻⁶ cm/s	19.8 nM	108.5%	104.8%	79.3%	–	–
COC(=O)c1cc2c(cc1C)/C(=C(/Nc1ccc(C(=O)NOCCCN(C)C)cc1)c1ccccc1)C(=O)N2 [Example 27]	10.4 nM	61.2%	0.00146 ×10⁻⁶ cm/s	4.77 nM	94.9%	88.6%	86.4%	–	–
COC(=O)c1cc2c(cc1C)/C(=C(/Nc1ccc(C(=O)NOC3CCN(C)CC3)c(C)c1)c1ccccc1)C(=O)N2 [Example 31]	7.72 nM	–	–	6.58 nM	111.7%	97.3%	95.7%	–	–
COC(=O)c1cc2c(cc1C)/C(=C(/Nc1ccc(C(=O)N(OC)C3CCN(C)CC3)c(C)c1)c1ccccc1)C(=O)N2 [Example 34]	13.4 nM	–	–	15.8 nM	114.8%	80%	61.5%	–	–
COC(=O)c1cc2c(cc1C)/C(=C(/Nc1ccc(C(=O)N(OC)C3CCN(C)CC3)cc1)c1ccccc1)C(=O)N2 [Example 35]	26.9 nM	–	–	22.1 nM	92.9%	77.2%	75.7%	–	–
COC(=O)c1ccc2c(c1)NC(=O)/C2=C(\Nc1ccc(C(=O)N2CCO2)cc1)c1ccccc1 [Example 37]	24.1 nM	–	–	244 nM	95.2%	98.9%	106%	–	–
COC(=O)c1ccc2c(c1)NC(=O)/C2=C(\Nc1ccc(C(=O)NOCCN2CCN(CCO)CC2)cc1)c1ccccc1 [Example 39]	33.8 nM	–	–	5.39 nM	89.9%	90.1%	90.8%	–	–
COC(=O)c1ccc2c(c1)NC(=O)/C2=C(\Nc1ccc(C(=O)NOCCN2[C@H](C)CCC[C@@H]2C)cc1)c1ccccc1 [Example 44]	73.9 nM	–	–	103 nM	103%	105.9%	109.8%	–	–
COC(=O)c1ccc2c(c1)NC(=O)/C2=C(\Nc1ccc(C(=O)NOCCN(C)CCO)cc1)c1ccccc1 [Example 45]	27.2 nM	–	–	14.1 nM	98.9%	104.7%	80.7%	–	–
COCCN1CCN(CCONC(=O)c2ccc(N/C(=C3\C(=O)Nc4cc(C(=O)OC)ccc43)c3ccccc3)cc2)CC1 [Example 46]	31.7 nM	–	–	28.1 nM	120.7%	109.5%	86.3%	–	–
COC(=O)c1ccc2c(c1)NC(=O)/C2=C(\Nc1ccc(C(=O)NOCCN2CCC(N(C)C)CC2)cc1)c1ccccc1 [Example 47]	39 nM	–	–	10.2 nM	112%	102.4%	93%	–	–
COC(=O)c1cc2c(cc1C)/C(=C(/Nc1ccc(C(=O)NOCCCN3CCCCC3)cc1)c1ccccc1)C(=O)N2 [Example 53]	43.8 nM	–	–	20.3 nM	124.2%	96.8%	97.8%	–	–
COC(=O)c1cc2c(cc1C)/C(=C(/Nc1ccc(C(=O)NOCCN3CCC(O)CC3)cc1)c1ccccc1)C(=O)N2 [Example 54]	34.1 nM	–	–	18.1 nM	101%	99.8%	92.9%	–	–
COC(=O)c1cc2c(cc1C)/C(=C(/Nc1ccc(C(=O)NOCCN3CCC(C#N)CC3)cc1)c1ccccc1)C(=O)N2 [Example 63]	4.74 nM	–	–	15.7 nM	99%	116.9%	12.1%	–	–
COC(=O)c1cc2c(cc1C)/C(=C(/Nc1ccc(C(=O)N(C)OCCN3CC4CC(C3)N4)cc1)c1ccccc1)C(=O)N2 [Example 66]	15.5 nM	–	–	16 nM	102.8%	92.9%	53.8%	–	–
